Laboratory results as given in the CheMixHub viscosity set.

Test: xn = mol fraction of the nth substance listed

Cc1ccccc1N + ClC(Cl)(Cl)Cl
viscosity [mPa·s], 100 kPa
Conditions	x2 = 0.0901	x2 = 0.1916	x2 = 0.2917	x2 = 0.3903	x2 = 0.4988	x2 = 0.6089	x2 = 0.6981	x2 = 0.7941	x2 = 0.8847
298.15 K	3.473	3.194	2.917	2.642	2.337	2.026	1.772	1.497	1.235
303.15 K	3.049	2.812	2.575	2.34	2.079	1.812	1.593	1.356	1.13
308.15 K	2.65	2.452	2.254	2.056	1.836	1.611	1.426	1.224	1.032
313.15 K	2.34	2.172	2.003	1.834	1.646	1.452	1.292	1.118	0.951
318.15 K	2.033	1.895	1.755	1.616	1.459	1.296	1.162	1.016	0.874

C1CC[NH2+]C1.CCCCCCCC(=O)[O-] + O
viscosity [mPa·s], 101 kPa
Conditions	x1 = 0.1001	x1 = 0.1939	x1 = 0.3059	x1 = 0.3999	x1 = 0.5006	x1 = 0.56	x1 = 0.7293	x1 = 0.8443
293.15 K	19.1	30.6	44.2	53	58.7	61.3	67.6	70.6
298.15 K	17	28.7	38.7	45.6	50.2	51.77	57.23	60.69
303.15 K	15.36	22.52	32.46	37.47	40.91	42.49	46.05	48.99
308.15 K	13.5	19.87	28.64	32.64	35.5	36.88	39.52	42.04
313.15 K	11.56	17.09	24.55	27.65	29.82	30.62	32.72	34.71

ClC(Cl)(Cl)c1ccccc1 + CC(Cl)(Cl)Cl
298.15 K, 101.33 kPa
Conditions	viscosity [mPa·s]
x2 = 0.157	1.93
x2 = 0.295	1.72
x2 = 0.423	1.532
x2 = 0.54	1.367
x2 = 0.647	1.222
x2 = 0.746	1.096
x2 = 0.837	0.9829
x2 = 0.921	0.8849

O=S(=O)(Cl)Cl + C1CCCCC1
298.15 K, 101 kPa
Conditions	viscosity [mPa·s]
x1 = 0.321	0.7303
x1 = 0.647	0.677
x1 = 0.797	0.6695

CC(O)CC(C)(C)O (stereo not given) + O=Cc1ccccc1
viscosity [mPa·s], 101 kPa
Conditions	x1 = 0.0921	x1 = 0.1829	x1 = 0.2762	x1 = 0.3752	x1 = 0.4712	x1 = 0.5787	x1 = 0.6736	x1 = 0.775	x1 = 0.8828
308.15 K	1.337	1.484	1.717	2.062	2.679	3.484	4.864	7.155	10.92
318.15 K	1.004	1.149	1.368	1.7	2.157	2.801	3.804	5.903	9.45

CCC(C)O (stereo not given) + CO
298.15 K, 101.33 kPa
Conditions	viscosity [mPa·s]
x2 = 0.1153	2.681
x2 = 0.2124	2.341
x2 = 0.2972	2.063
x2 = 0.3974	1.765
x2 = 0.4714	1.563
x2 = 0.5959	1.263
x2 = 0.671	1.102
x2 = 0.8045	0.852
x2 = 0.8927	0.711

CCCCCCCCCCCCCCCCCC(=O)O + CC(C)[C@@H]1CC[C@@H](C)C[C@H]1O
100 kPa, x1 = 0.1
Conditions	viscosity [mPa·s]
313.15 K	16.61
318.15 K	12.62
323.15 K	9.81

CCCCn1cc[n+](C)c1.F[B-](F)(F)F + CN1CCCC1=O
101 kPa
Conditions	viscosity [mPa·s]
298.15 K, x1 = 0.2779	9.05
298.15 K, x1 = 0.957	86.3
303.15 K, x1 = 0.2779	7.82
303.15 K, x1 = 0.3423	9.48
308.15 K, x1 = 0.4657	9.19

Nc1ccccc1Cl + CCCCO
viscosity [mPa·s], 101 kPa
Conditions	x1 = 0.0883	x1 = 0.1789	x1 = 0.2719	x1 = 0.3675	x1 = 0.4656	x1 = 0.5666	x1 = 0.6703	x1 = 0.7771	x1 = 0.8869
303.15 K	2.47	2.66	2.83	3	3.16	3.31	3.44	3.57	3.69
308.15 K	2.21	2.39	2.55	2.71	2.85	2.98	3.1	3.22	3.32
313.15 K	1.98	2.16	2.31	2.45	2.58	2.7	2.82	2.92	3
318.15 K	1.79	1.96	2.1	2.23	2.35	2.46	2.57	2.67	2.74

O=S1(=O)CCCC1 + CCCCOCCO
303.15 K, 101 kPa
Conditions	viscosity [mPa·s]
x1 = 0.0491	1.94
x1 = 0.0999	1.87
x1 = 0.2	2.002
x1 = 0.2998	2.501
x1 = 0.3503	2.882
x1 = 0.3999	3.311
x1 = 0.4495	3.777
x1 = 0.4999	4.28
x1 = 0.5997	5.339
x1 = 0.7015	6.489
x1 = 0.7991	7.639
x1 = 0.8987	8.898
x1 = 0.9504	9.535

O=S(=O)([O-])NC1CCCCC1.[Rb+] + O
viscosity [mPa·s], 101 kPa
Conditions	x1 = 0.00091	x1 = 0.001356	x1 = 0.001833	x1 = 0.002303	x1 = 0.002722	x1 = 0.003185	x1 = 0.003618	x1 = 0.004055	x1 = 0.004552
293.15 K	1.024	1.036	1.048	1.061	1.072	1.084	1.096	1.108	1.123
298.15 K	0.9105	0.9203	0.9315	0.9419	0.9516	0.962	0.9723	0.9828	0.9953
303.15 K	0.8157	0.8243	0.8343	0.8431	0.8516	0.8608	0.8696	0.8789	0.8887
313.15 K	0.6675	0.6747	0.6824	0.6896	0.696	0.7034	0.7104	0.7177	0.7252
323.15 K	0.5585	0.564	0.5704	0.5762	0.5814	0.5874	0.5931	0.5992	0.6057
